In the CheMixHub viscosity set:
± gives the uncertainty stated by the source.

Assay: xn = mol fraction of the nth substance listed

ClCc1ccccc1 + c1ccccc1
viscosity [mPa·s], 101 kPa
Conditions | x2 = 0.1988 | x2 = 0.3583 | x2 = 0.489 | x2 = 0.5982 | x2 = 0.6907 | x2 = 0.7701 | x2 = 0.839 | x2 = 0.8993 | x2 = 0.9526
298.15 K | 0.9856 ± 0.3 | 0.8952 ± 0.27 | 0.8251 ± 0.25 | 0.7742 ± 0.23 | 0.7152 ± 0.21 | 0.6823 ± 0.2 | 0.6598 ± 0.2 | 0.6485 ± 0.19 | 0.6042 ± 0.18
303.15 K | 0.9782 ± 0.29 | 0.8724 ± 0.26 | 0.8024 ± 0.24 | 0.7153 ± 0.21 | 0.6942 ± 0.21 | 0.6324 ± 0.19 | 0.6248 ± 0.19 | 0.5923 ± 0.18 | 0.5634 ± 0.17
308.15 K | 0.9265 ± 0.28 | 0.8258 ± 0.25 | 0.7865 ± 0.24 | 0.7026 ± 0.21 | 0.6294 ± 0.19 | 0.6058 ± 0.18 | 0.5861 ± 0.18 | 0.5592 ± 0.17 | 0.5389 ± 0.16
313.15 K | 0.9357 ± 0.28 | 0.8562 ± 0.26 | 0.7548 ± 0.23 | 0.6994 ± 0.21 | 0.6241 ± 0.19 | 0.5826 ± 0.17 | 0.5742 ± 0.17 | 0.5486 ± 0.16 | 0.5095 ± 0.15

CCCBr + Cc1ccc(C)cc1
308.15 K, 101 kPa
Conditions | viscosity [mPa·s]
x2 = 0.1032 | 0.4446 ± 0.0039
x2 = 0.2012 | 0.4528 ± 0.0039
x2 = 0.3051 | 0.4596 ± 0.004
x2 = 0.4051 | 0.469 ± 0.0041
x2 = 0.503 | 0.477 ± 0.0041
x2 = 0.6038 | 0.4865 ± 0.0042
x2 = 0.7055 | 0.4971 ± 0.0043
x2 = 0.8019 | 0.5027 ± 0.0043
x2 = 0.8965 | 0.5124 ± 0.0044

CCC(O)CO (stereo not given) + CN(C)C=O
308.15 K, 101 kPa
Conditions | viscosity [mPa·s]
x1 = 0.0519 | 0.748 ± 0.02
x1 = 0.1008 | 0.855 ± 0.022
x1 = 0.2013 | 1.113 ± 0.028
x1 = 0.2983 | 1.444 ± 0.035
x1 = 0.4099 | 2.065 ± 0.05
x1 = 0.4883 | 2.645 ± 0.063
x1 = 0.5694 | 3.576 ± 0.084
x1 = 0.7139 | 7.387 ± 0.16
x1 = 0.8896 | 16.22 ± 0.32
x1 = 0.9489 | 21.9 ± 0.43

COCCOCCOCCO + CC(C)O
viscosity [mPa·s], 101 kPa
Conditions | x1 = 0.0079 | x1 = 0.0146 | x1 = 0.0314 | x1 = 0.0413 | x1 = 0.0581 | x1 = 0.0775 | x1 = 0.1025
298.15 K | 2.089 ± 0.037 | 2.09 ± 0.037 | 2.099 ± 0.038 | 2.116 ± 0.038 | 2.128 ± 0.038 | 2.159 ± 0.039 | 2.207 ± 0.039
308.15 K | 1.568 ± 0.029 | 1.574 ± 0.029 | 1.594 ± 0.029 | 1.608 ± 0.029 | 1.628 ± 0.03 | 1.683 ± 0.03 | 1.706 ± 0.031
318.15 K | 1.202 ± 0.022 | 1.21 ± 0.022 | 1.235 ± 0.023 | 1.252 ± 0.023 | 1.266 ± 0.023 | 1.3 ± 0.024 | 1.343 ± 0.025

C[NH+](CCO)CCO.O=C[O-] + CCO
viscosity [mPa·s], 101 kPa
Conditions | 293.15 K | 303.15 K | 313.15 K | 323.15 K
x1 = 0.0643 | 32.41 ± 0.67 | 17.44 ± 0.36 | 8.445 ± 0.17 | 5.799 ± 0.12
x1 = 0.1074 | 52.86 ± 1.1 | 25.09 ± 0.52 | 13.49 ± 0.28 | 9.254 ± 0.19
x1 = 0.2133 | 106.7 ± 2.4 | 51.03 ± 1 | 27.25 ± 0.56 | 18.63 ± 0.38
x1 = 0.3117 | 159.3 ± 4 | 78.2 ± 1.7 | 41.19 ± 0.85 | 28.12 ± 0.58
x1 = 0.417 | 218.9 ± 6 | 107.6 ± 2.4 | 57.4 ± 1.2 | 39.18 ± 0.8
x1 = 0.5197 | 281.6 ± 8.3 | 137.2 ± 3.3 | 74.93 ± 1.6 | 51.06 ± 1
x1 = 0.6178 | 348.2 ± 11 | 168.6 ± 4.3 | 93.84 ± 2.1 | 63.73 ± 1.3
x1 = 0.7224 | 434.6 ± 15 | 211.7 ± 5.8 | 118.3 ± 2.7 | 79.69 ± 1.7
x1 = 0.8275 | 534.4 ± 19 | 263.6 ± 7.7 | 145.7 ± 3.6 | 97.16 ± 2.2
x1 = 0.9161 | 630.3 ± 24 | 312.3 ± 9.6 | 170 ± 4.4 | 112.2 ± 2.6
x1 = 0.95 | 665 ± 25 | 328.9 ± 10 | 178.8 ± 4.6 | 117.6 ± 2.7

COCCOCCOCCOC + COC(=O)OC
298.15 K, 101.33 kPa
Conditions | viscosity [mPa·s]
x1 = 0.0029 | 0.592 ± 0.006
x1 = 0.0133 | 0.606 ± 0.006
x1 = 0.0209 | 0.618 ± 0.006
x1 = 0.0436 | 0.651 ± 0.006
x1 = 0.0642 | 0.679 ± 0.007
x1 = 0.0947 | 0.721 ± 0.007
x1 = 0.1187 | 0.753 ± 0.007
x1 = 0.1459 | 0.792 ± 0.007
x1 = 0.1856 | 0.846 ± 0.008
x1 = 0.2147 | 0.888 ± 0.008
x1 = 0.2593 | 0.953 ± 0.008
x1 = 0.3084 | 1.026 ± 0.009
x1 = 0.3099 | 1.025 ± 0.009
x1 = 0.3614 | 1.099 ± 0.009
x1 = 0.4011 | 1.157 ± 0.01
x1 = 0.4433 | 1.221 ± 0.01
x1 = 0.5005 | 1.303 ± 0.011
x1 = 0.5659 | 1.396 ± 0.011
x1 = 0.6004 | 1.449 ± 0.012
x1 = 0.6515 | 1.524 ± 0.012
x1 = 0.6923 | 1.585 ± 0.013
x1 = 0.7622 | 1.673 ± 0.013
x1 = 0.815 | 1.74 ± 0.014
x1 = 0.8324 | 1.76 ± 0.014
x1 = 0.9158 | 1.86 ± 0.014
x1 = 0.9541 | 1.899 ± 0.015

COCCOCCOCCOC + ClC(Cl)(Cl)Cl
298.15 K, 101 kPa
Conditions | viscosity [mPa·s]
x1 = 0.0041 | 0.912 ± 0.013
x1 = 0.0202 | 0.952 ± 0.013
x1 = 0.0485 | 1 ± 0.014
x1 = 0.0921 | 1.08 ± 0.015
x1 = 0.1704 | 1.198 ± 0.016
x1 = 0.2242 | 1.288 ± 0.017
x1 = 0.2579 | 1.333 ± 0.017
x1 = 0.2736 | 1.364 ± 0.018
x1 = 0.3237 | 1.437 ± 0.018
x1 = 0.3887 | 1.52 ± 0.019
x1 = 0.4494 | 1.59 ± 0.02
x1 = 0.5 | 1.646 ± 0.021
x1 = 0.5522 | 1.696 ± 0.022
x1 = 0.6149 | 1.75 ± 0.022
x1 = 0.6542 | 1.79 ± 0.023
x1 = 0.7187 | 1.826 ± 0.023
x1 = 0.7623 | 1.846 ± 0.023
x1 = 0.8533 | 1.891 ± 0.024
x1 = 0.8992 | 1.913 ± 0.024
x1 = 0.9312 | 1.929 ± 0.024

CC(C)(C)O + CN1CCCC1=O
298.15 K, 101 kPa
Conditions | viscosity [mPa·s]
x2 = 0.0522 | 4.027 ± 0.042
x2 = 0.1107 | 3.478 ± 0.036
x2 = 0.2046 | 2.892 ± 0.029
x2 = 0.2528 | 2.676 ± 0.027
x2 = 0.3034 | 2.494 ± 0.025
x2 = 0.3557 | 2.342 ± 0.023
x2 = 0.4023 | 2.234 ± 0.022
x2 = 0.4562 | 2.13 ± 0.021
x2 = 0.4773 | 2.095 ± 0.021
x2 = 0.4998 | 2.064 ± 0.02
x2 = 0.5605 | 1.981 ± 0.019
x2 = 0.5966 | 1.942 ± 0.019
x2 = 0.6533 | 1.885 ± 0.018
x2 = 0.7046 | 1.842 ± 0.018
x2 = 0.7461 | 1.809 ± 0.018
x2 = 0.8029 | 1.775 ± 0.017
x2 = 0.8498 | 1.745 ± 0.017
x2 = 0.9007 | 1.719 ± 0.017
x2 = 0.9581 | 1.688 ± 0.017

CCNCC + CCCCCCCCCO
viscosity [mPa·s], 100 kPa
Conditions | x1 = 0.0799 | x1 = 0.1586 | x1 = 0.2389 | x1 = 0.3485 | x1 = 0.4391 | x1 = 0.5594 | x1 = 0.649 | x1 = 0.7395 | x1 = 0.8499 | x1 = 0.9397
293.15 K | 10.36 ± 0.83 | 9.36 ± 0.75 | 8.35 ± 0.67 | 7.05 ± 0.57 | 5.99 ± 0.48 | 4.66 ± 0.37 | 3.71 ± 0.3 | 2.79 ± 0.22 | 1.71 ± 0.14 | 0.87 ± 0.07
303.15 K | 7.11 ± 0.57 | 6.4 ± 0.51 | 5.7 ± 0.46 | 4.78 ± 0.38 | 4.05 ± 0.33 | 3.14 ± 0.25 | 2.5 ± 0.2 | 1.88 ± 0.15 | 1.17 ± 0.1 | 0.63 ± 0.05
313.15 K | 5.05 ± 0.41 | 4.53 ± 0.36 | 4.03 ± 0.32 | 3.37 ± 0.27 | 2.85 ± 0.23 | 2.21 ± 0.18 | 1.77 ± 0.14 | 1.34 ± 0.11 | 0.85 ± 0.07 | 0.49 ± 0.04
323.15 K | 3.71 ± 0.3 | 3.34 ± 0.27 | 2.97 ± 0.24 | 2.49 ± 0.2 | 2.12 ± 0.17 | 1.65 ± 0.13 | 1.33 ± 0.11 | 1.02 ± 0.08 | 0.67 ± 0.05 | 0.4 ± 0.03
